In patent publication US20230137943A1, “PHOTOPROXIMITY PROFILING OF PROTEIN-PROTEIN INTERACTIONS IN CELLS” (The University of Chicago, priority 2019, published 2023):

Assays:
[1] = system: HEK293T cells stably expressing SNAP-FLAG; assay: Viability assay (CellTiter-Glo, relative ATP content); assay type: cell-based, human; conditions: 2 hours at 37° C.
Experimental: Viability assay: HEK293T cells stably expressing SNAP-FLAG were seeded with at 5,000 cells per well in 50 μL DMEM in a 96-well plate. Twenty-four hours later, cells were treated with a varying concentration (0, 0.5, 1, 5, 15, 45 μM in sextuplicate) of photoproximity probe PP1 in a total volume of 100 μL DMEM. After 2 hours at 37° C., a 100 μL of CellTiter-Glo® (Promega Corporation, Madison, Wis., United States of America; 5-fold DPBS dilution) was added and the plate imaged using a SYNERGY™ Neo HST plate reader (BioTek, Winooski, Vt., United States of America).
To determine if AC1 affects cell viability, a viability assay was performed. Briefly, HEK293T cells stably expressing Snap-Flag were seeded at 5,000 cells per well in 100 μL DMEM in a 96-well plate. Upon >90% confluency, media was gently removed and cells were treated with a varying concentration (0, 1, 5, 10, 15, 20, 50 uM) in sextuplicate of AC-1 in a total volume of 75 μL DMEM. After 2 hours at 37° C., media was aspirated and cells were gently washed with […] of serum free DMEM. […] Luminescence was recorded using a SYNERGY™ Neo HST plate reader (BioTek, Winooski, Vt., United States of America).
HEK293T cells stably expressing Snap-Flag were seeded at 5,000 cells per well in 100 μL DMEM in a 96-well plate. […] Luminescence was recorded using a SYNERGY™ Neo HST plate reader (BioTek, Winooski, Vt., United States of America).

KEAP1-SNAP protein = molecular target: T1, KEAP1-SNAP protein (Homo sapiens, UniProt P16455+Q14145, A127T/A154D/C150Q/C62A/E30R/G131K/G132T/G153L/K125A/K32I/L33F/M134L/N157G/Q115S/Q116H/R128A/R135S/S151G/S152D/S159E); assay: Probe dose response: labeling of KEAP1-SNAP fusion in live cells (Western blot); assay type: cell-based
T1 construct: expressed in transfected cells; host or cells: HEK293T, lentiviral transduction with pDC-006, blasticidin selection
T1 sequence (Q14145+P16455 fused with the stated changes): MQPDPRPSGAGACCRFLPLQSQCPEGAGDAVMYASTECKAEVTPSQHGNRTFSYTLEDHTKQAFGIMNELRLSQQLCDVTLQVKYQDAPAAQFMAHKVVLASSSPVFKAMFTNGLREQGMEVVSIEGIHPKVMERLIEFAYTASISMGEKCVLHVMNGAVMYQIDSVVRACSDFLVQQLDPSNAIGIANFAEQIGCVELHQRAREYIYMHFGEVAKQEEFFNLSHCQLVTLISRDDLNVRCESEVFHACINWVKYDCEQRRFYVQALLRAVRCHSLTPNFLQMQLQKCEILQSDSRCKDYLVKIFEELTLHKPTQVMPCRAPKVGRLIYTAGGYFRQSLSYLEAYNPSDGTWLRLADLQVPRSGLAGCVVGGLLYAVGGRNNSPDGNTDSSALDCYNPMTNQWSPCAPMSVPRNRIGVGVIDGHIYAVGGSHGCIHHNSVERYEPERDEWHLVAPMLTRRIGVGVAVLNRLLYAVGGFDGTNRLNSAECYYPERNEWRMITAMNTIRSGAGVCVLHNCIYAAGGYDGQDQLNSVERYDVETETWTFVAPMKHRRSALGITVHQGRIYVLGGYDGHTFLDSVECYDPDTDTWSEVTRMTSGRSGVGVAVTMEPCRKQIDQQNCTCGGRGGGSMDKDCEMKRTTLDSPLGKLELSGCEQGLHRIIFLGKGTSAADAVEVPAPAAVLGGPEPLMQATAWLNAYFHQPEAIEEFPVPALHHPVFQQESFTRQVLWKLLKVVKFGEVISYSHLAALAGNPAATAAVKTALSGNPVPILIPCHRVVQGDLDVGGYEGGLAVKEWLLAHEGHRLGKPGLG
Experimental: PP1 close response and viability assay: Dose response—Each well of a 6-well plate was seeded with 300,000 HEK293T cells stably expressing either SNAP-FLAG or KEAP-SNAP. After reaching ˜90% confluency the growth media was removed, cells washed with DPBS, and treated with varying concentrations (0, 0.5, 1, 5, 15, 45 μM) of photoproximity probe PP1 in 500 μL serum-free DMEM for 2 hours at 37° C. Post treatment, media was aspirated and non-reacted probe washed out with 3 mL full DMEM over 40 minutes, changing the media twice. Cells were harvested, washed, and lysed in DPBS containing protease inhibitor using a tip sonicator. Lysate was normalized to 1 mg/mL then diluted with loading buffer and run on SDS-PAGE gel that was transferred by western blot to nitrocellulose. The nitrocellulose membrane was stained for biotin and Flag-Tag using streptavidin IR dye (Li-cor #926-32230; Li-cor Biosciences, Lincoln, Nebr., United States of America) and anti-Flag (Sigma #F3165, Sigma-Aldrich, St. Louis, Mo., United States of America; Li-cor #926-68072, Li-cor Biosciences, Lincoln, Nebr., United States of America). Fluorescence images were collected using an Odyssey infrared imager (Li-cor Biosciences, Lincoln, Nebr., United States of America).
Both C- and N-terminal SNAP-Tag fusions of full-length, human KEAP1, in each case separated by a short linker were cloned. […] Both C- and N-terminal SNAP fusions were functional, as indicated by dose-dependent labeling with PP1 in live cells. […] Finally, it was expected that identification of probe-labeled binding partners, and therefore proteins proximal to KEAP1 in cells, would be improved by quantitative proteomic differentiation of enriched vs. background proteins. Therefore, SILAC-labeled cultures expressing both N-terminal (referred to as SNAP-KEAP1) and C-terminal (referred to as KEAP1-SNAP) fusion proteins with light and heavy arginine and lysine were prepared. Matched cultures of heavy and light cells, each expressing the same SNAP-KEAP1 or KEAP1-SNAP construct, were then treated with PP1 probe or vehicle for 2 hr. […]

Row | SMILES | Cell growth or viability ([1]; AC1 0-50 uM) | Concentration at which protein is labeled (KEAP1-SNAP protein; AC1 0-50 μM, 1 or 2 hours, live HEK293T cells) | Cell permeability (KEAP1-SNAP protein; AC1, biotin-labeling of SNAP-FLAG-KEAP1 in live HEK293T cells) | Cell viability ([1]; PP1 0-45 μM (saturating doses)) | EC50 of KEAP1-SNAP fusion labeling (KEAP1-SNAP protein; PP1, live HEK293T cells, 2 hr, not irradiated)
1 | COc1cc(COC(=O)NC(CCCCNC(=O)CCC2(C)N=N2)C(=O)NCCCCC2SCC3NC(=O)NC32)c([N+](=O)[O-])cc1OCCCC(=O)NCc1ccc(COc2nc(N)nc3[nH]cnc23)cc1 (centres unmarked) [AC1] | does not impair cell growth or viability | low micromolar concentrations | cell permeable | – | –
2 | COc1cc(C(C)OC(=O)NC(CCCCNC(=O)CCC2(C)N=N2)C(=O)NCCCCCNC(=O)CCCCC2SCC3NC(=O)NC32)c([N+](=O)[O-])cc1OCCCC(=O)NCc1ccc(COc2nc(N)nc3[nH]cnc23)cc1 (centres unmarked) [PP1] | – | – | – | not affected | low micromolar
